Source: patent US20230022117A1, “RNAi-BASED TARGETING COMPOUNDS AND USES THEREOF TO PREVENT ACQUIRED HEARING LOSS” (MUSC FOUNDATION FOR RESEARCH DEVELOPMENT, priority 2019, published 2023)
Blank lines part the entries; values can stand above or below the compound they belong to.

Legend:
Format in all cases: in vivo, mouse
[1] = Body weight and survival with CDDP treatment
Experimental: There is no difference in auditory threshold shifts between CDDP 2.5-4 mg/kg with 55-60 dB shifts when measured on day 7 and on day 14 post treatment. […] This model was used to test the effect of AMPKα siRNA.
Body weight was measured before treatment, on treatment days, and 7 and 14 d post treatment. […] Data are presented as means±SD. CDDP2 mg/kg: n=2, CDDP 2.5 mg/kg: n=5, CDDP 3 mg/kg: n=2, CDDP 4 mg/kg: n=3.

[2] = system: CBA/J mice; assay: Cisplatin-plus-furosemide-induced hearing loss: ABR threshold shifts; details: CDDP 2.5-4 mg/kg plus furosemide 200 mg/kg IP; measured on day 7 and on day 14 post treatment
[3] = system: CBA/J mice; assay: Kanamycin-plus-furosemide-induced hearing loss: ABR threshold shifts; details: 8, 16, and 32 kHz; for hearing loss / auditory threshold shifts (in words): single treatment, KM 800 mg/kg SQ and/or Fu 200 mg/kg IP, 14 d after the injections; for KM-furosemide-induced auditory threshold shifts: 14 d after the injection
[4] = system: CaMKKβ; assay: Silencing efficiency: CaMKKβ immunolabeling in OHCs after siRNA delivery; details: basal turn, 22-32 kHz
Description: (§1) siCaMKKβ (Thermo Fisher, #n437808) (sense: […] SEQ ID NO: 1; antisense […] SEQ ID NO: 2) or siControl (Thermo Fisher, #4390844) was locally delivered via intra-tympanic application onto the RWM as previously described (Oishi et al., 2013; Hill et al., 2016) or via PSC to the endolymph based on reports (Guo, 2018 #3975; Tao, 2018 #3973). Briefly, after anesthesia, a retroauricular incision was made to approach the temporal bone. For intra-tympanic delivery onto the RWM, the otic bulla was identified ventral to the facial nerve and a shallow hole was made in the thin part of the otic bulla with a 30-G needle and enlarged with forceps to a diameter of 2 mm in order to visualize the round window. […]
Immunohistochemistry is well accepted as a semi-quantitative methodology when used with careful consideration of the utility and semi-quantitative nature of these assays (Taylor, 2006 #3978; Walker, 2006 #3979). The specificity of antibodies must be first detected by Western blot analysis. Antibodies showing only a single band with the correct molecular weight were used for immunolabeling on surface preparations and quantification of signaling in OHCs. […] The grayscale value was determined in only the hair cells to quantify the change in fluorescence intensity. This procedure provided quantitative measurements that are not confounded by protein expression in other cell types of the cochlea. […]

[5] = system: outer hair cells (OHCs); assay: Kanamycin-furosemide-induced OHC loss: hair cell counts; details: siRNA pretreatment via PSC; 14 d after the lesions
Description: as §1, with “window. A customized sterile micro medical tube was inserted into the hole just above the round window niche (RWN) to slowly deliver 10 μL (0.6 μg) of siCaMKKβ or siControl. For PSC delivery, the stemocleidomastoid muscle was separated to expose the PSC. A small hole was made with the tip of a 30-G needle on the PSC and left open for about 1 min (there was no obvious endolymph leakage).” for “window.”
Images from the apex through the base of the DAB-stained preparations were captured using a 20× lens on the Zeiss microscope. The lengths of the cochlear epithelia were measured and recorded in millimeters. OHCs were counted from the apex to the base along the entire length of the mouse cochlear epithelium. […]

[6] = system: CBA/J mice; assay: Noise-induced hearing loss (101-dB noise): DPOAE thresholds; details: pretreatment via intra-tympanic delivery on RWM; 12-40 kHz; 14 d after noise exposure
[7] = system: OHC mechanotransduction channels; assay: FM1-43 uptake into OHCs (mechanotransduction channel function); details: siRNA delivered through the PSC 48 h before application of FM1-43
Experimental: (§2) Since aminoglycoside antibiotics are known to enter outer hair cells (OHCs) mainly through mechanotransduction channels (MTCs), to address if protective effects of pretreatment with siCaMKKβ is due to blockade of kanamycin and/or furosemide entering OHCs, we assessed OHC MTCs using FM1-43FX, based on prior literature (Meyers et al., 2003; Taylor et al., 2008; Nakanishi et al., 2018). siCaMKKβ was delivered through the posterior semicircular canal (PSC) 48 h before application of FM1-43 to measure MTC function in OHCs. […] Scale bar=10 μm.
as §2, with “with siAMPKα1” for “with siCaMKKβ”, “2018). siAMPKα” for “2018). siCaMKKβ”

[8] = system: IHC synapses; assay: Noise-induced loss of IHC synapses: CtBP2/GluA2 counts; details: pretreatment via intra-tympanic delivery onto the RWM; 101-dB noise; 14 d; loss at 22 and 32 kHz
Experimental: Unrestrained CBA/J male mice at the age of 12 weeks (one mouse per stainless steel wire cage, approximately 9 cm^3) were exposed to broad band noise from to 2-20 kHz at 101 dB sound pressure level (SPL) for 2 h to induce permanent threshold shifts with loss of synaptic ribbons and OHCs, but not IHCs, or 106 dB to induce permanent threshold shifts with losses of ribbons, OHCs, and IHCs by 14 d after the noise exposure. […] Audio CD sound files were created and equalized with audio editing software (Audition 3; Adobe Systems, Inc.). The background sound intensity of the environment surrounding the cages was 65 dB as measured with a sound level meter (model 1200; Quest Technologies). Sound levels for noise exposure are calibrated with a sound level meter at multiple locations within the sound chamber to ensure the uniformity of the sound field before and after exposure. […]
A procedure as previously described by Hill et al., 2016 was followed. Immunofluorescence of CtBP2 on surface preparations was quantified from original confocal images, each taken with a 63×-magnification lens under identical Z-stack conditions in […] intervals and equal parameter settings for laser gains and PMT gains. […] The number of synaptic ribbons was counted using ImageJ software (National Institutes of Health, Bethesda, Md.). […]

[9] = system: outer hair cells (OHCs); assay: Noise-induced OHC loss: hair cell counts along the cochlear duct; details: pretreatment via intra-tympanic delivery on RWM; 101-dB noise; 14 d after exposure
Experimental: (§3) Unrestrained CBA/J male mice at the age of 12 weeks (one mouse per stainless steel wire cage, approximately 9 cm^3) were exposed to broad band noise from to 2-20 kHz at 101 dB sound pressure level (SPL) for 2 h to induce permanent threshold shifts with loss of synaptic ribbons and OHCs, but not IHCs, or 106 dB to induce permanent threshold shifts with losses of ribbons, OHCs, and IHCs by 14 d after the noise exposure. […] Audio CD sound files were created and equalized with audio editing software (Audition 3; Adobe Systems, Inc.). The background sound intensity of the environment surrounding the cages was 65 dB as measured with a sound level meter (model 1200; Quest Technologies). Sound levels for noise exposure are calibrated with a sound level meter at multiple locations within the sound chamber to ensure the uniformity of the sound field before and after exposure. Control mice were kept in silence (without use of the loudspeaker) within the same chamber for 2 h. […]
Images from the apex through the base of the DAB-stained preparations were captured using a 20× lens on the Zeiss microscope. The lengths of the cochlear epithelia were measured and recorded in millimeters. OHCs were counted from the apex to the base along the entire length of the mouse cochlear epithelium.

[10] = system: CBA/J mice; assay: Noise-induced hearing loss (101-dB broad band noise): ABR threshold shifts; details: pretreatment via intra-tympanic delivery on RWM; 8, 16, and 32 kHz; 14 d after noise exposure; vs siControl
Experimental: as §3
ABRs were measured in the left ears of anaesthetized mice before and two weeks after noise exposure. […] Body temperature was monitored and maintained near 37° C. with a heating pad. […] ABRs were measured at 8, 16, and 32 kHz. […] Thresholds were determined for each frequency by reducing the intensity in 10-dB increments and then in 5-dB steps near threshold until no organized responses were detected. […]

[11] = system: CBA/J mice; assay: Kanamycin-furosemide-induced damage to OHC function: DPOAE; details: siRNA pretreatment via PSC; 14 d after the injection

Compound: [NH2][Pt]([NH2])([Cl])[Cl] [CDDP, cisplatin]
death ([1]; 3 mg/kg CDDP treated group, day 8 after the treatment): One mouse of the 3 mg/kg CDDP treated group died
changes in body weight ([1]; CDDP at and above 3 mg/kg, day 7 post treatment vs beginning of the treatment): loss of body weight
changes in body weight ([1]; CDDP at doses below or equal 2.5 mg/kg): no significant changes
auditory threshold shifts [2]: 55-60 dB

hearing loss / auditory threshold shifts (in words) [3]: does not induce hearing loss
Compound: NC[C@H]1O[C@H](O[C@H]2[C@H](O)[C@@H](O[C@H]3O[C@H](CO)[C@@H](O)[C@H](N)[C@H]3O)[C@H](N)C[C@@H]2N)[C@H](O)[C@@H](O)[C@@H]1O [KM, kanamycin, reference compound]

Compound: siCaMKKβ: CaMKKβ siRNA (Thermo Fisher, #n437808); sense GAGCACAAAUAAUUGUUUUTT SEQ ID NO: 1; antisense AAAACAAUUAUUUGUGCUCTA SEQ ID NO: 2 (chemistry not given here)
decrease of CaMKKβ immunolabeling in grayscale in OHCs compared to siControls ([4]; 72 h after PSC delivery): about 90%
decrease of CaMKKβ immunolabeling in grayscale in OHCs compared to siControls ([4]; 72 h after intra-tympanic delivery onto the RWM): about 40%
KM-furosemide-induced auditory threshold shifts ([3]; siRNA pretreatment via PSC): completely prevented
KM-furosemide-induced auditory threshold shifts ([3]; siRNA pretreatment via intra-tympanic delivery onto the RWM): significant reduction
KM-furosemide-induced OHC loss [5]: completely prevents
101-dB-noise-increased DPOAE thresholds [6]: significantly attenuates
FM1-43 uptake into OHCs compared with siControl mice [7]: does not change
noise-induced loss of synapses (CtBP2/GluA2) [8]: prevented
noise-induced OHC loss [9]: significantly reduced
threshold shifts induced by exposure to 101-dB noise [10]: significantly decreases
KM-furosemide-induced reduction of DPOAE (damage to OHC function) [11]: completely prevented

hearing loss / auditory threshold shifts (in words) [3]: does not induce hearing loss
Compound: NS(=O)(=O)c1cc(C(=O)O)c(NCc2ccco2)cc1Cl [furosemide, reference compound]
